Values quoted from earlier work as cited in publication PMC12114947, “Evaluation of Violacein Metabolic Stability and Metabolite Identification in Human, Mouse, and Rat Liver Microsomes” (Pharmaceutics, 2025).
Read-outs that look alike come from different tables or passages of the source.

Key:
[1] = design: method as in PMID 38399311; conditions: liver microsomes, rats; cited from earlier work
[2] = design: method as in PMID 38399311; conditions: liver microsomes, mice; cited from earlier work
[3] = design: method as in PMID 38399311; conditions: liver microsomes, humans; cited from earlier work
[4] = cited from earlier work
[5] = cited from earlier work; remark: listed apart in the source
[6] = cited from earlier work; remark: listed apart in the source
[7] = cited from earlier work; remark: listed apart in the source
[8] = design: method as in PMID 12920490, PMID 24002099, PMID 10445386; conditions: based on the human hepatic microsomal pathway; cited from earlier work
[9] = design: method as in PMID 9408857; conditions: rats; cited from earlier work
[10] = design: method as in PMID 9408857; conditions: rabbits; cited from earlier work
[11] = design: method as in PMID 9408857; conditions: dogs; cited from earlier work
[12] = design: method as in PMID 9408857; conditions: humans; cited from earlier work
[13] = cited from earlier work; remark: listed apart in the source
[14] = cited from earlier work; remark: listed apart in the source

CCCC(NCC)C(=O)c1ccccc1 (stereo not shown) [N-ethyl pentedrone]
t1/2 [1]: 0.202 h | t1/2 [2]: 3.12 h | t1/2 [3]: 12.8 h

CO[C@H]1O[C@@H]2O[C@@]3(C)CC[C@H]4[C@H](C)CC[C@@H]([C@H]1C)[C@@]24OO3 [artemether]
Clearance ([4]; artemether alone): 281.3 ± 67.3 mL/min/kg | Clearance ([4]; co-administered with pyronaridine): 466.7 ± 36 mL/min/kg

C[C@@H]1CC[C@H]2[C@@H](C)C(=O)O[C@@H]3O[C@@]4(C)CC[C@@H]1[C@]32OO4 [artemisinin]
t1/2 ([5]; in vivo): 1 to 2 h

CCN(CC)CCCC(C)Nc1ccnc2cc(Cl)ccc12 (stereo not shown) [chloroquine]
Clearance [4]: 1.5 to 1.7 mL/min/kg

CCCCN(CCCC)CC(O)c1cc(Cl)cc2c1-c1ccc(Cl)cc1/C2=C/c1ccc(Cl)cc1 (stereo not shown) [lumefantrine]
t1/2 ([5]; antimalarials): 72 to 144 h

OC(c1cc(C(F)(F)F)nc2c(C(F)(F)F)cccc12)C1CCCCN1 (stereo not shown) [mefloquine]
Clearance ([4]; in vivo): 0.33 to 0.83 mL/min/kg

Cc1ncc2n1-c1ccc(Cl)cc1C(c1ccccc1F)=NC2 [midazolam]
CLint, in vivo ([6]; rat): 79.2 mL/min/kg | t1/2 ([6]; rats): about 31 min | CLint, in vivo ([7]; human): 6.67 mL/min/kg | t1/2 ([7]; humans): 1.85 h

COc1cc(NC(C)CCCN)c2ncccc2c1 (stereo not shown) [primaquine]
Estimated CLint, in vivo [8]: approximately 0.017 mL/min/kg

CNS(=O)(=O)Cc1ccc2[nH]cc(CCN(C)C)c2c1 [sumatriptan]
Clearance [9]: 44.7 mL/min/kg | Clearance [10]: 26 mL/min/kg | Clearance [11]: 14 mL/min/kg | Clearance [12]: approximately 1.10 L/h/kg

NC(Cc1cc(I)c(Oc2cc(I)c(O)c(I)c2)c(I)c1)C(=O)O (stereo not shown) [thyroxine]
CLint, in vitro ([13]; rat 1): 1.08 mL/min/10^6 cells | CLint, in vitro ([13]; rat 2): 0.75 mL/min/10^6 cells | CLint, in vitro ([14]; human donor 1364): 0.61 mL/min/10^6 cells | CLint, in vitro ([14]; human donor Hu1362): 0.56 mL/min/10^6 cells
